The source of these data is patent publication US9120761B2, “Selective FAK inhibitors” (priority 2011, dated 2015).

For one assay, the system named is MDA-231-LNA cells. In words: 2D cellular proliferation assay. The assay is classed as cell-based. Conditions: 72 h, 3 days incubation, resazurin. A general note: Alamar Blue is a resazurin reagent that responds to reducing activity.
The target of assay [1] is VEGFR3 cytoplasmic domain (Homo sapiens, UniProt P35916, DEL949-1002). In words: VEGFR3 biochemical assay (Alpha Screen). The following applies: modified form (*): N-terminal Hexa-His-fusion protein, amino acids 818-1177 lacking 949-1002.
Assay [2] addresses N-terminally GST-fused purified FAK enzyme (Homo sapiens (Human), UniProt Q05397). Kind of assay: FAK Biacore SPR assay. The assay is classed as binding. Background: Surface plasmon resonance follows binding to a sensor surface in real time, without labels.
Description: Binding parameters of compounds were determined using a Biacore™ S51 sensor. An anti-GST antibody was immobilized onto a CM5 chip by primary amine-coupling in accordance with the manufacturer's recommendations.
Concentration series' of the test compounds were injected over the spots at 25° C.
After the injection cycle of a compound the chip surface was regenerated with 10 mM glycine-HCl, pH2.2 before capturing the enzyme again.
The target of assay [3] is FAK enzyme (catalytic domain, amino acids 411-686) (Homo sapiens (Human), UniProt Q05397). Kind of assay: FAK biochemical Alpha Screen assay. The following applies: 80 μM ATP.
Assay [4] has as its target VEGFR3 cytoplasmic domain (Homo sapiens, UniProt P35916). In words: VEGFR3 biochemical assay (Alpha Screen). The following applies: N-terminal GST-fusion protein (amino acids 798-1298), 500 μM ATP.
The test system of the next assay is MDA-231-LNA tumours. Kind of assay: Combination study efficacy and tolerability with dasatinib, IMFP MDA-231-LNA tumours. Conditions: Compound 3 40 mg/kg p.o. BID, dasatinib 30 mg/kg p.o. BID; Balb/c SCID mice, MDA-231-LNA primary tumour. The assay is classed as in vivo.
A further assay deals with FAK (Homo sapiens (Human), UniProt Q05397). Conditions: in vitro; cited from earlier work.
In assay [5] the test system is HeyA8, SKOV3ip1, and HeyA8-MDR models. The following applies: cited from earlier work.
Assay [6] relates to taxane-sensitive (SKOV3ip1 and HeyA8) and taxane-resistant (HeyA8-MDR) ovarian cancer cell lines. Conditions: cited from earlier work.

The structures appear in SMILES notation. Where two headings read alike, the source gives them in different places.

VEGFR3 cytoplasmic domain (Homo sapiens, UniProt P35916, DEL949-1002), sequence (P35916 with tags, fused parts or gaps DEL949-1002 limits assumed): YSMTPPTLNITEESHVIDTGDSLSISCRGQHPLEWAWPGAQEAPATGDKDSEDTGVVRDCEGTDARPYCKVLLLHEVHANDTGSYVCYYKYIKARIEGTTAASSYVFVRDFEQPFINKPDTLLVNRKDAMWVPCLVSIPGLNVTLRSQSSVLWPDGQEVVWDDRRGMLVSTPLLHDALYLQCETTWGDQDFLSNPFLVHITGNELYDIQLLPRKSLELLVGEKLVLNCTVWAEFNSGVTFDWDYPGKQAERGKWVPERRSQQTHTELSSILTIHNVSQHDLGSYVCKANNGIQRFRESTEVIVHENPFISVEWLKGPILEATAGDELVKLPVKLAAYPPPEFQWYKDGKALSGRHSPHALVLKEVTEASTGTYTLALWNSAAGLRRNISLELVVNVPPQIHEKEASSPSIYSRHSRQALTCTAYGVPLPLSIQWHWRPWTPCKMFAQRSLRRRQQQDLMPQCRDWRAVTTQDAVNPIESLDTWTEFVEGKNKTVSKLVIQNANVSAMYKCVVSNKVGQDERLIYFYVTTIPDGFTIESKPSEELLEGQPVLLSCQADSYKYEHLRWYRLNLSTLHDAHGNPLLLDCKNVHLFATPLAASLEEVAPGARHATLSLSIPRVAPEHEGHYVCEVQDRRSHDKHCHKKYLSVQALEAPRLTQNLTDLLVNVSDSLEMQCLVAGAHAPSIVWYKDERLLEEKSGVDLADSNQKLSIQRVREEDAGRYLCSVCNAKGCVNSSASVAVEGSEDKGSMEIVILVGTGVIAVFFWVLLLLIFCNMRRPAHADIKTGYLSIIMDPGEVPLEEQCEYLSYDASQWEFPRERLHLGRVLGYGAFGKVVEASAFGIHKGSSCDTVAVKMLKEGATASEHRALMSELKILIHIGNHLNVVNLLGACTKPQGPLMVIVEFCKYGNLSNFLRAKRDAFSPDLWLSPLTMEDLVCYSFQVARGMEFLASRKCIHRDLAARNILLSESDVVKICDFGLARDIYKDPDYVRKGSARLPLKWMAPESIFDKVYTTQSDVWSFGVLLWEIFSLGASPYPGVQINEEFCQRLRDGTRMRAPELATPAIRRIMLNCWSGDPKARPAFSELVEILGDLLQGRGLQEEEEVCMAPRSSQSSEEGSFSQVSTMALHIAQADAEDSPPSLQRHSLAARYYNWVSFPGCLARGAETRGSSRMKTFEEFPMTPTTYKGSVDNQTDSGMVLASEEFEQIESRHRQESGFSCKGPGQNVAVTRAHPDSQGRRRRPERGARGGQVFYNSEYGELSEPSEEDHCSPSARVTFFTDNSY
VEGFR3 cytoplasmic domain (Homo sapiens, UniProt P35916), sequence (P35916 25-1363 limits assumed): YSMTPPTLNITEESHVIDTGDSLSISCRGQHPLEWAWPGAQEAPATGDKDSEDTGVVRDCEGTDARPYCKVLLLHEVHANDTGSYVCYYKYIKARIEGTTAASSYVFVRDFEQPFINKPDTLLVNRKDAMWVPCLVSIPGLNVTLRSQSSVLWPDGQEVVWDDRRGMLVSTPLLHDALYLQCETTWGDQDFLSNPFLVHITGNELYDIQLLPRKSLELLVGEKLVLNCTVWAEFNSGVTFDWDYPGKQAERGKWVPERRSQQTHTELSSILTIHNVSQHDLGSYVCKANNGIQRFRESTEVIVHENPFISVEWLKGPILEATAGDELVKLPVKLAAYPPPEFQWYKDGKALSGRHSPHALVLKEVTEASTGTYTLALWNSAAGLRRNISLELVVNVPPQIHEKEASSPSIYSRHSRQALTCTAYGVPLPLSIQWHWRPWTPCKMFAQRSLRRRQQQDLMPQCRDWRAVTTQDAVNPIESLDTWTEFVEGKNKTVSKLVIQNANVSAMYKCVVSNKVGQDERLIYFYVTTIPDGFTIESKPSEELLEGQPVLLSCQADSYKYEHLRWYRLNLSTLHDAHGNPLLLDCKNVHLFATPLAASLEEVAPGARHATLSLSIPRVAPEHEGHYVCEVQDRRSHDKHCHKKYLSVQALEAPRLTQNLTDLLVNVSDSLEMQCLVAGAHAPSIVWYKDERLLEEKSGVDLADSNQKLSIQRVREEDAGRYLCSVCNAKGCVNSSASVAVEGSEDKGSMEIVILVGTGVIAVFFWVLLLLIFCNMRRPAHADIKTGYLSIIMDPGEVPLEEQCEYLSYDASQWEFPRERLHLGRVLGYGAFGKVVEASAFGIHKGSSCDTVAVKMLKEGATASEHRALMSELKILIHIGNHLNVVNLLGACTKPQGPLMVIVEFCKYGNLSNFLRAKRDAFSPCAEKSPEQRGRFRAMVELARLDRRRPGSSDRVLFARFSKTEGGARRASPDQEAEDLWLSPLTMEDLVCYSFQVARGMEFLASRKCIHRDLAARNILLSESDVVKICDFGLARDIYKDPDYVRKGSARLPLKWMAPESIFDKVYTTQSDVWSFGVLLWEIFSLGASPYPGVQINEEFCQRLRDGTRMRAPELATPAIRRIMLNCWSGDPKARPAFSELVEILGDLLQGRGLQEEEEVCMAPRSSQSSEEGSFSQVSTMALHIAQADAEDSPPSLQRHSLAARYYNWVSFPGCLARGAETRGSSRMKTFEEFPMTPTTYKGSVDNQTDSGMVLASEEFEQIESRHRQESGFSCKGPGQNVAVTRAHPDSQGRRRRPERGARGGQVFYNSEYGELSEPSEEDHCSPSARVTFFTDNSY
FAK enzyme (catalytic domain, amino acids 411-686), sequence (Q05397 411-686): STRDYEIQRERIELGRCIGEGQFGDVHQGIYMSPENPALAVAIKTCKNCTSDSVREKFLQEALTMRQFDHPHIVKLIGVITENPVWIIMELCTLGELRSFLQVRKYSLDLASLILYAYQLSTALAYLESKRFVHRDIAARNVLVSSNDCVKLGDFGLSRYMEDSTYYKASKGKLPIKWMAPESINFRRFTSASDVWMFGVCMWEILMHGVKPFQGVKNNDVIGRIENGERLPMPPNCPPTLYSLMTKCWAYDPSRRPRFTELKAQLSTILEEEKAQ
N-terminally GST-fused purified FAK enzyme, sequence (Q05397 whole entry, the tested form may be a part): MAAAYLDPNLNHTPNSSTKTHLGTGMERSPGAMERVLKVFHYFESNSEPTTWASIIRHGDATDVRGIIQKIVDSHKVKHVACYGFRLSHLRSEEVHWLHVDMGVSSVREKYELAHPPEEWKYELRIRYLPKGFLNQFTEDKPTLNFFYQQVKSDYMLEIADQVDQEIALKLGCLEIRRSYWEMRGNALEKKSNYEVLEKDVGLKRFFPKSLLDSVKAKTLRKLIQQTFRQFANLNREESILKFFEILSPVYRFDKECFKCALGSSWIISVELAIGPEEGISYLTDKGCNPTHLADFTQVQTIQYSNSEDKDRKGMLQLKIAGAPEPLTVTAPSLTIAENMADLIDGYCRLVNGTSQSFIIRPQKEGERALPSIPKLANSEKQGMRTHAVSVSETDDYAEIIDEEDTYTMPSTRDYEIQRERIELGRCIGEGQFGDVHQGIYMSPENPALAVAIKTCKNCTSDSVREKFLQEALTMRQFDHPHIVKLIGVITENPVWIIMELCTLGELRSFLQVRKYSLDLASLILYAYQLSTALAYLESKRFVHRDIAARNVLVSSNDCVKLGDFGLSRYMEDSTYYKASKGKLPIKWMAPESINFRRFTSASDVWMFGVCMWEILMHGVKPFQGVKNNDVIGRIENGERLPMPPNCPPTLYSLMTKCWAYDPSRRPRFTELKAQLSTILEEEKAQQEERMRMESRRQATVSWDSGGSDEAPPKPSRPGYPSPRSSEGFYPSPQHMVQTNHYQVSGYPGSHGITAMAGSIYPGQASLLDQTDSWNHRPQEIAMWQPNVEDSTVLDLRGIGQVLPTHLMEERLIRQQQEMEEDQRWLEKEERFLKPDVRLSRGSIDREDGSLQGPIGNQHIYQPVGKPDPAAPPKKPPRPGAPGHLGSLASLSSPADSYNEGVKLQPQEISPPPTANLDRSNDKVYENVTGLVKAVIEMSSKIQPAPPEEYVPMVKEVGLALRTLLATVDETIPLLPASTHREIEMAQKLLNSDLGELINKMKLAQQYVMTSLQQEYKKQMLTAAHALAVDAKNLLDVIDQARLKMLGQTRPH
FAK, sequence (Q05397 whole entry): as the sequence (Q05397 whole entry, the tested form may be a part) above
Description for MDA-231-LNA tumours: Treatment commenced when tumours were palpable (day 9 post cell injection) and continued for the duration of the experiment. The formulations used were the same as those above, with the vehicle (I-IPMC-SV, 0.2 ml), being administered as a control.
As additional markers of potential hepatotoxicity, liver weight at harvest as well as alanine aminotransferase (ALT) and aspartate transaminase (AST) levels were determined in plasma 12 hours after the final dose of drug.

As for `COc1cc(N2CCNCC2)ccc1Nc1ncc(C(F)(F)F)c(CCc2ccccc2CC(N)=O)n1` [Compound 1, 2-(2-(2-(2-((2-Methoxy-4-(piperazin-1-yl)phenyl)amino)-5-(trifluoromethyl)pyrimidin-4-yl)ethyl)phenyl)acetamide], the figures for the IC50 (in the assay with MDA-231-LNA cells; in assay [1]; in assay [3]) were 1.43 µM, 0.275 µM and 0.0019 µM, respectively. In assay [2] (Biacore S51, 25° C.), this molecule had an equilibrium dissociation constant (Kd) of 0.00029 µM.

For `COc1cc(C2CCNCC2)ccc1Nc1ncc(C(F)(F)F)c(CCc2ccccc2CC(N)=O)n1` [Compound 2, 2-(2-(2-(2-((2-Methoxy-4-(piperidin-4-yl)phenyl)amino)-5-(trifluoromethyl)pyrimidin-4-yl)ethyl)phenyl)acetamide], the IC50 is 2.77 µM with MDA-231-LNA cells, 3.68 µM in [1] and 0.0071 µM in assay [3]. This molecule showed a Kd in assay [2] (Biacore S51, 25° C.) of 0.00074 µM.

Turning to `COc1cc(C2CCN(C)CC2)ccc1Nc1ncc(C(F)(F)F)c(CCc2ccccc2CC(N)=O)n1` [Compound 3, 2-(2-(2-(2-((2-Methoxy-4-(1-methylpiperidin-4-yl)phenyl)amino)-5-(trifluoromethyl)pyrimidin-4-yl)ethyl)phenyl)acetamide], the concentration for half-maximal inhibition (IC50) in the assay with MDA-231-LNA cells is 6.62 µM; in assay [4], 0.538 µM; in assay [3], 0.0022 µM. In [2] (Biacore S51, measured using an extended washing step of 30 minutes), the Kd came out at 0.00021 µM. Moreover, the “TGI based on tumour weight” value in the assay with MDA-231-LNA tumours is reported as 42%.

Take `CCN1CCC(c2ccc(Nc3ncc(C(F)(F)F)c(CCc4ccccc4CC(N)=O)n3)c(OC)c2)CC1` [Compound 4, 2-(2-(2-(2-((4-(1-Ethylpiperidin-4-yl)-2-methoxyphenyl)amino)-5-(trifluoromethyl)pyrimidin-4-yl)ethyl)phenyl) acetamide]: the IC50 with MDA-231-LNA cells is 1.91 µM; in assay [3] it was 0.0036 µM. Moreover, in assay [2] (Biacore S51, 25° C.), the affinity, expressed as Kd, was 0.0015 µM.

In the case of `COc1cc(C2CCNCC2)ccc1Nc1ncc(C(F)(F)F)c(CCc2cccc(C(N)=O)c2)n1` [Compound 5, 3-(2-(2-((2-Methoxy-4-(piperidin-4-yl)phenyl)amino)-5-(trifluoromethyl)pyrimidin-4-yl)ethyl)benzamide], the IC50 in the assay with MDA-231-LNA cells stood at 3.06 µM; in assay [1], 5.75 µM; in [3], 0.0072 µM.

With `COc1cc(C2CCN(C)CC2)ccc1Nc1ncc(C(F)(F)F)c(CCc2cccc(C(N)=O)c2)n1` [Compound 6, 3-(2-(2-((2-Methoxy-4-(1-methylpiperidin-4-yl)phenyl)amino)-5-(trifluoromethyl)pyrimidin-4-yl)ethyl)benzamide], the IC50 in the assay with MDA-231-LNA cells was 2.24 µM; in assay [4], 10.4 µM; in [3] it was 0.0021 µM. In addition, the Kd in assay [2] (Biacore S51, 25° C.) stood at 0.0029 µM.

Turning to `CCN1CCC(c2ccc(Nc3ncc(C(F)(F)F)c(CCc4cccc(C(N)=O)c4)n3)c(OC)c2)CC1` [Compound 7], the IC50 is 4.93 µM with MDA-231-LNA cells, 13.3 µM in [1] and 0.0094 µM in assay [3].

As to `CCc1cc(C2CCNCC2)ccc1Nc1ncc(C(F)(F)F)c(CCc2ccccc2CC(N)=O)n1` [Compound 8, 2-(2-(2-(2-((2-Ethyl-4-(piperidin-4-yl)phenyl)amino)-5-(trifluoromethyl)pyrimidin-4-yl)ethyl)phenyl)acetamide], the figures for the IC50 (in the assay with MDA-231-LNA cells; in assay [4]) were 2.48 µM and 1.18 µM, respectively.

As for `CCc1cc(C2CCN(C)CC2)ccc1Nc1ncc(C(F)(F)F)c(CCc2ccccc2CC(N)=O)n1` [Compound 9, 2-(2-(2-(2-((2-Ethyl-4-(1-methylpiperidin-4-yl)phenyl)amino)-5-(trifluoromethyl)pyrimidin-4-yl)ethyl)phenyl)acetamide], in the assay on MDA-231-LNA cells, the IC50 came to 2.9 µM.

Turning to `NC(=O)Cc1ccccc1CCc1nc(Nc2ccc(C3CCNCC3)cc2OC(F)(F)F)ncc1C(F)(F)F` [Compound 10, 2-(2-(2-(2-((4-(Piperidin-4-yl)-2-(trifluoromethoxy)phenyl)amino)-5-(trifluoromethyl)pyrimidin-4-yl)ethyl)phenyl)acetamide], the figures for the IC50 (with MDA-231-LNA cells; in assay [4]; in assay [3]) were 1.69 µM, > 66 µM and 0.0027 µM, respectively. This molecule also gave a Kd in assay [2] (Biacore S51, 25° C.) of 0.00079 µM.

With `CN1CCC(c2ccc(Nc3ncc(C(F)(F)F)c(CCc4ccccc4CC(N)=O)n3)c(OC(F)(F)F)c2)CC1` [Compound 11, 2-(2-(2-(2-((4-(1-Methylpiperidin-4-yl)-2-(trifluoromethoxy)phenyl)amino)-5-(trifluoromethyl)pyrimidin-4-yl)ethyl)phenyl)acetamide], the IC50 in the assay with MDA-231-LNA cells was 2.58 µM; in [4], 59.8 µM; in [3], 0.0022 µM. Moreover, the Kd in assay [2] (Biacore S51, 25° C.) came to 0.0017 µM.

Regarding `CN1CCC(c2ccc(Nc3ncc(C(F)(F)F)c(CCc4ccccc4CC(N)=O)n3)c(F)c2)CC1` [Compound 13, 2-(2-(2-(2-((2-Fluoro-4-(1-methylpiperidin-4-yl)phenyl)amino)-5-(trifluoromethyl)pyrimidin-4-yl)ethyl)phenyl)acetamide], the figures for the IC50 (in the assay with MDA-231-LNA cells; in assay [4]; in [3]) were 2.76 µM, 0.205 µM and 0.0056 µM, respectively.

For `CNC(=O)c1ccccc1Nc1nc(Nc2ccc(N3CCOCC3)cc2OC)ncc1Cl` [TAE226], the “phosphorylation of FAK at Y397 and Y861 sites” value on FAK is recorded as “inhibited”. Also, in assay [5], the “reduction of tumour burden compared with vehicle-treated controls” value is 46-64%. The cell growth result in assay [6] (in vitro) is “inhibited cell growth in a time- and dose-dependent manner”. The “enhancement of docetaxel-mediated growth inhibition” value is 20 fold in [6] (taxane-resistant cell lines) and 10 fold in assay [6] (taxane-sensitive cell lines).

What is called IC50 is the concentration that gives 50% inhibition. A higher IC50 goes with lower potency. One may read the Kd as the equilibrium constant for the complex coming apart. Low readings indicate tighter binding, high ones weaker binding.
